# US6303596A, “Use of taurolidine for treatment of leukemias” (priority 2000, dated 2001)
# Assays:
# HL-60 = experiment: growth rate after taurolidine treatment, HL-60; type: cell-based, human
# Protocol: FIGS. 7A and 7B depict cell viability and growth rates for HL-60 cell line following taurolidine treatment, in terms of % trypan blue negative cells and % cell number, respectively. Cells were treated with various concentrations of taurolidine for 4 hours in AIM-V+0.01% BCS. After aliquots were collected for LDH assay, the remainder of the culture was rinsed in HBSS and resuspended in RPMI+10% BCS without taurolidine. Counts of trypan blue-negative cells (FIG. 7A), and total cell number (FIG. 7B), were recorded daily thereafter (with the measurement at Day 1 being made immediately after the 4 hour taurolidine treatment). Conditions were: no treatment (open circles); 25 μg/ml taurolidine (closed circles); 50 μg/ml taurolidine (open squares); 100 μg/ml taurolidine (closed squares); and vehicle alone (closed triangles). Doubling times were determined under each condition, and expressed as a percentage of the rate of doubling of untreated cells. These values are located to the right of the growth curves in (FIG. 7B). Cells were subcultured when they reached a concentration of 6×10^5 cells/ml. Data are mean±SEM of three experiments.
# In these experiments, integrity of cell membranes following taurolidine treatment was assessed by exclusion of trypan blue and by measuring the release of LDH in MM6, K-562, HL-60, and REH cells. Since BCS contains significant amounts of LDH, these experiments were conducted on cells cultured in AIM-V+0.01% BCS. […] A parallel aliquot of cells was lysed by three cycles of freeze/thaw and the quantity of LDH released was taken to be 100%. […]
# HL-60 cells treated with 50 μl taurolidine. In these samples, LDH present in the culture medium was 8.3±2.3% of that released by completely lysed cells, compared with 2.3±0.8% measured in control cultures. […] After 4 hour treatment, cells were rinsed and returned to growth medium and monitored for viability and growth over the following 3 days. […]
# ^b Growth rate was measured over three days following treatment.
# TNFα = experiment: LPS-induced TNFα expression/secretion by PBMC, ELISA; type: cell-based, human; details: taurolidine 100 μg/ml, 4 h
# Protocol: FIG. 3A and FIG. 3B are graphs depicting taurolidine inhibition of LPS-induced alpha […] (TNFα) expression by monocytic cells as determined by assay procedures. FIG. 3A represents MM6 cells; FIG. 3B represents PBMC. The cells were induced with LPS (hatched bars: 100 ng/ml LPS in RPMI+10% BCS; solid bars: 10 ng/ml in AIM-V+0.01% BCS) in the presence of varying concentrations of taurolidine. After four hours, cell supernatants were collected for TNFα ELISA. Data are expressed as percent of TNFα levels measured in cell cultures treated with LPS alone (no taurolidine or vehicle). Experiments were performed with duplicate samples and were repeated at least three times. Values shown in FIG. 3A are from a representative experiment. Values shown in FIG. 3B are mean±SEM of three experiments.
# Human peripheral blood mononuclear cells (PBMC) were isolated from heparinized blood by centrifugation using Histopaque as per manufacturer's instructions. The isolated PBMC were suspended in RPMI supplemented with 10% BCS and were used in experiments immediately thereafter. As determined by flow cytometry, PBMC were typically 11±2% monocytes and 80±13% lymphocytes, with the remaining cytometric events consistent in size with platelets and cell aggregates. […]
structure (smiles),measurement,setting,value
"O=S1(=O)CCN(CN2CCS(=O)(=O)NC2)CN1 [taurolidine, 4,4'-methylenebis(perhydro-1,2,4-thiadiazin 1,1-dioxide)]",sensitivity of cell growth among cell lines,HL-60; HL-60,most inhibited
same,activity at 50 µg/mL,"HL-60; Homo sapiens, 72 h, HL-60, 50 μg/ml for 4 h, growth over three days, read-out: growth rate (% of control)",0%
same,activity at 100 µg/mL,"HL-60; Homo sapiens, 72 h, HL-60, 100 μg/ml for 4 h, growth over three days, read-out: growth rate (% of control)",3%
same,inhibition of LPS-induced TNFα secretion,TNFα,maximally inhibit TNFα secretion
